This test addresses Sphingosine 1-phosphate receptor 4 (Homo sapiens) (UniProt O95977). Briefly: S1P4 receptor agonist potency, late-stage follow-up, cell-based, fluorescence, dose response, synthesized compounds set 2 (AID 504877). To be noted: S1P4 cell-based agonist assay, fluorescence read-out.

Several values for one entry are separate records, joined by “and”; a condition that tells them apart may be missing. Equal values may be shown once. Activity calls are given as the source filed them. How the calls were made is not given here.

Here are results for 30 compounds from PubChem BioAssay AID504877 (The Scripps Research Institute Molecular Screening Center, 2011).

With `CCN=C1S/C(=C/c2cc(C)n(Cc3ccccc3)c2C)C(=O)N1CC`, the EC50 (usually the midpoint of the concentration-response curve) runs as follows: (run 1) 598 nM; (run 2) 703 nM; (run 3) 154 nM.

For `CCN=C1S/C(=C/c2cc(C)n(-c3ncccc3F)c2C)C(=O)N1CC`, the EC50 is 5310 nM (run 1) and 918 nM (run 3). Moreover, where the note is “run 2”, the EC50 entry was “inactive”.

Regarding `CCN=C1S/C(=C/c2cc(C)n(-c3ccc(F)cc3F)c2C)C(=O)N1CC`, the EC50 is 75.3 nM (run 1), 133 nM (run 2) and 104 nM (run 3).

Regarding `CCN=C1S/C(=C\c2cc(C)n(-c3ccccc3)c2C)C(=O)N1CC`, the half-maximal effective concentration (EC50) reads like this: (run 1) 635 nM; (run 2) 705 nM; (run 3) 465 nM.

As for `CN=C1S/C(=C/c2cc(C)n(-c3ccc(F)cc3F)c2C)C(=O)N1C`, the EC50 by setting is: (run 1) 113 nM; (run 2) 199 nM; (run 3) 317 nM.

On to `CN=C1S/C(=C/c2cc(C)n(-c3ccc(Cl)cc3F)c2C)C(=O)N1C`, for which the EC50 was 432 nM (run 1), 686 nM (run 2) and 202 nM (run 3).

In the case of `CCN=C1S/C(=C\c2cc(C)n(-c3ccccc3F)c2C)C(=O)N1CC`, the EC50 is 116 nM (run 1), 268 nM (run 2) and 368 nM (run 3).

For the compound `CCN=C1S/C(=C\c2ccn(-c3ccccc3F)c2)C(=O)N1CC`, the EC50 runs as follows: (run 1) > 50000 nM (inactive); (run 2) > 50000 nM (inactive). Besides, the EC50 result (run 3) was “inactive”.

`CCN=C1S/C(=C/c2cc(C)n(-c3ccccn3)c2C)C(=O)N1CC`: the 50% effective concentration (EC50) reads like this: (run 1) 158 nM; (run 2) 212 nM; (run 3) 102 nM.

As for `CN=C1NC(=O)/C(=C\c2cc(C)n(-c3ccccc3F)c2C)S1`, the EC50 is, setting by setting: (run 1) 5380 nM; (run 2) 4530 nM; (run 3) 942 nM.

Regarding `CN=C1NC(=O)/C(=C\c2cc(C)n(-c3cccc(F)c3)c2C)S1`, the EC50 by setting is: (run 1) > 50000 nM (inactive); (run 2) > 50000 nM (inactive); (run 3) > 50000 nM (inactive).

Take `CN=C1S/C(=C\c2ccn(-c3ccccc3F)c2)C(=O)N1C`: the EC50 (run 1) is > 50000 nM (inactive), the EC50 (run 2) is > 50000 nM (inactive) and the EC50 (run 3) was > 50000 nM (inactive).

For `Cc1cc(/C=C2\SC(=NC(C)C)N(C(C)C)C2=O)c(C)n1-c1ccccc1F`, the EC50 reads like this: (run 1) > 50000 nM (inactive); (run 2) > 50000 nM (inactive); (run 3) > 50000 nM (inactive).

For the compound `CCN=C1S/C(=C/c2ccn(-c3ccc(F)cc3F)c2)C(=O)N1CC`, the EC50 entry (run 1) is “inactive”. The EC50 is > 50000 nM (inactive) (run 2) and 5390 nM (run 3).

As to `Cc1cc(/C=C2\SC(=Nc3ccccc3)NC2=O)c(C)n1-c1ccccc1F`, the EC50 was > 50000 nM (inactive) (run 1), > 50000 nM (inactive) (run 2) and > 50000 nM (inactive) (run 3).

Consider `CN=C1S/C(=C\c2ccn(Cc3ccccc3)c2)C(=O)N1C`, for which the EC50 is > 50000 nM (inactive) (run 1), > 50000 nM (inactive) (run 2) and > 50000 nM (inactive) (run 3).

Regarding `CN=C1S/C(=C/c2cc(C)n(-c3ccccc3C)c2C)C(=O)N1C`, the EC50 is > 50000 nM (inactive) (run 1) and > 50000 nM (inactive) (run 2). The EC50 result (run 3) was “inactive”.

`CCN=C1S/C(=C\c2cc(C)n(Cc3ccccc3F)c2C)C(=O)N1CC`: the EC50 runs as follows: (run 1) > 50000 nM (inactive); (run 2) > 50000 nM (inactive); (run 3) > 50000 nM (inactive).

On to `COCCN=C1S/C(=C\c2cc(C)n(Cc3ccccc3)c2C)C(=O)N1CCOC`, for which the EC50 reads like this: (run 1) > 50000 nM (inactive); (run 2) > 50000 nM (inactive). The EC50 entry (run 3) was “inactive”.

For `CN=C1S/C(=C\c2cc(C)n(-c3ccc(F)cc3F)c2C)C(=O)N1CCOC`, the concentration for a half-maximal effect (EC50) (run 1) is 1580 nM and the concentration for a half-maximal effect (EC50) (run 2) was 1.85 nM.

With `C/N=C1/SC(=Cc2cc(C)n(Cc3ccc(F)cc3F)c2C)C(=O)N1C`, the 50% effective concentration (EC50) was 84.7 nM (run 1), 195 nM (run 2) and 161 nM (run 3).

Turning to `CCN=C1S/C(=C/c2cc(C)n(-c3ccc(Cl)cc3F)c2C)C(=O)N1CC`, the EC50 is 490 nM (run 1), 733 nM (run 2) and 370 nM (run 3).

On to `CC/N=C1/SC(=Cc2cc(C)n(Cc3ccccc3OC)c2C)C(=O)N1CC`, for which the EC50 runs as follows: (run 1) 274 nM; (run 2) 663 nM; (run 3) 285 nM.

In the case of `CCN=C1S/C(=C/c2cc(C)n(C(C)c3ccccc3)c2C)C(=O)N1CC` (stereo not drawn), the EC50 entry by setting is: (run 1) “inactive”; (run 3) “inactive”. Also, where the note is “run 2”, the EC50 is > 50000 nM (inactive).

As to `Cc1cc(/C=C2\SC(=O)N(C)C2=O)c(C)n1-c1ccccc1F`, the EC50 runs as follows: (run 1) > 50000 nM (inactive); (run 2) > 50000 nM (inactive); (run 3) 8960 nM.

Regarding `CN=C1S/C(=C\c2cc(C)n(-c3ccccc3Br)c2C)C(=O)N1C`, the EC50 (run 1) is > 50000 nM (inactive), the EC50 (run 2) was > 50000 nM (inactive) and the EC50 (run 3) is > 50000 nM (inactive).

Regarding `COCCN=C1S/C(=C\c2cc(C)n(-c3ccc(F)cc3F)c2C)C(=O)N1C`, the EC50 reads like this: (run 1) 37.7 nM and 51.4 nM; (run 2) 79.1 nM.

Take `CN=C1S/C(=C/c2cc(C)n(Cc3ccccc3)c2C)C(=O)N1C`: the EC50 is, setting by setting: (run 1) 203 nM; (run 2) 454 nM; (run 3) 130 nM.

Regarding `Cc1cc(/C=c2\sc3n(c2=O)CCCN=3)c(C)n1-c1ccccc1F`, the EC50 reads like this: (run 1) > 50000 nM (inactive); (run 2) > 50000 nM (inactive); (run 3) > 50000 nM (inactive).

Consider `CN=C1S/C(=C/c2cc(C)n(-c3cc(C)ccc3OC)c2C)C(=O)N1C`, for which the EC50 is, setting by setting: (run 1) > 50000 nM (inactive); (run 2) > 50000 nM (inactive); (run 3) > 50000 nM (inactive).
